Test results published in publication PMC3983011 (2014).

Experiments:
Conditions in all cases: 150 mM NaCl, 5 mM MgCl2; 10 mM HEPES, pH 7.4, 25 °C; immobilised aptamer
[1] = test system: 44.Cit11 citrulline aptamer (RNA, aptamer) GGGACGAGAAGGAGUGCUGGUUAUACUAGCGGUUAGGUCACUCGUCCCCCAAAAAAAAAAAAAAAAAAAAAAAA; test: SPR, steady-state affinity fit
[2] = test system: minimal MG-4 malachite green aptamer (RNA, aptamer) GGGAUCCCGACUGGCGAGAGCCAGGUAACGAAUGGAUCCCCCCAAAAAAAAAAAAAAAAAAAAAAAA; test: SPR kinetics, kd/ka, 1:1 fit
[3] = test system: minimal MG-4 malachite green aptamer (RNA, aptamer) GGGAUCCCGACUGGCGAGAGCCAGGUAACGAAUGGAUCCCCCCAAAAAAAAAAAAAAAAAAAAAAAA; test: SPR, steady-state affinity fit
[4] = test system: c-di-GMP class II riboswitch (RNA, riboswitch) GGGUAUUUAUAGAAACUGUGAAGUAUAUCUUAAACCUGGGCACUUAAAAGAUAUAUGGAGUUAGUAGUGCAACCUGCUAUAAAUACCCCAAAAAAAAAAAAAAAAAAAAAAAA; test: SPR, steady-state affinity fit
[5] = test system: c-di-GMP class II riboswitch (RNA, riboswitch) GGGUAUUUAUAGAAACUGUGAAGUAUAUCUUAAACCUGGGCACUUAAAAGAUAUAUGGAGUUAGUAGUGCAACCUGCUAUAAAUACCCCAAAAAAAAAAAAAAAAAAAAAAAA; test: SPR kinetics, kd/ka, 1:1 fit
[6] = test system: minimal Tyr 1 tyrosine aptamer (RNA, aptamer) GGGGGCAGUCAACUCGUAAGAUGGCCUUACAGCGGUCAAUACGGGGGUCAUCAGAUAGGGAGGCCCCCCAAAAAAAAAAAAAAAAAAAAAAAA; test: SPR, steady-state affinity fit
[7] = test system: 44.Arg11 arginine aptamer (RNA, aptamer) GGGACGAGAAGGAGCGCUGGUUAUACUAGCAGGUAGGUCACUCGUCCCCCAAAAAAAAAAAAAAAAAAAAAAAA; test: SPR, steady-state affinity fit
[8] = test system: 35FMN-2 flavin mononucleotide aptamer (RNA, aptamer) GGGCGUGUAGGAUAUCGUGUUCGAGAAGGACACGCCCCCCAAAAAAAAAAAAAAAAAAAAAAAA; test: SPR, steady-state affinity fit
[9] = test system: 35FMN-2 flavin mononucleotide aptamer (RNA, aptamer) GGGCGUGUAGGAUAUCGUGUUCGAGAAGGACACGCCCCCCAAAAAAAAAAAAAAAAAAAAAAAA; test: SPR kinetics, kd/ka, 1:1 fit
[10] = test system: DH25.42 ATP aptamer (DNA, aptamer) CCTGGGGGAGTATTGCGGAGGAAGGAAAAAAAAAAAAAAAAAAAAAAAA; test: SPR, steady-state affinity fit
[11] = test system: minimal thiM TPP riboswitch (RNA, riboswitch) GGGACUCGGGGUGCCCUUCUGCGUGAAGGCUGAGAAAUACCCGUAUCACCUGAUCUGGAUAAUGCCAGCGUAGGGAAGUCCCCCAAAAAAAAAAAAAAAAAAAAAAAA; test: SPR kinetics, kd/ka, 1:1 fit
[12] = test system: TCT8-4 theophylline aptamer (RNA, aptamer) GGGAAGUGAUACCAGCAUCGUCUUGAUGCCCUUGGCAGCACUUCCCCCAAAAAAAAAAAAAAAAAAAAAAAA; test: SPR kinetics, kd/ka, 1:1 fit
[13] = test system: TCT8-4 theophylline aptamer (RNA, aptamer) GGGAAGUGAUACCAGCAUCGUCUUGAUGCCCUUGGCAGCACUUCCCCCAAAAAAAAAAAAAAAAAAAAAAAA; test: SPR, steady-state affinity fit

NC(=O)NCCC[C@H](N)C(=O)O
KD,equilibrium [1]: 31 ± 1 µM

CN(C)c1ccc(C(=C2C=CC(=[N+](C)C)C=C2)c2ccccc2)cc1
KD,kinetic [2]: 0.95 ± 0.34 µM | KD,equilibrium [3]: 2.0 ± 0.1 µM

Nc1nc2c(ncn2[C@@H]2O[C@@H]3COP(=O)(O)O[C@H]4[C@@H](O)[C@H](n5cnc6c(=O)[nH]c(N)nc65)O[C@@H]4COP(=O)(O)O[C@H]3[C@H]2O)c(=O)[nH]1
KD,equilibrium [4]: 0.12 ± 0.02 µM | KD,kinetic [5]: 0.06 ± 0.031 µM

N[C@@H](Cc1ccc(O)cc1)C(=O)O
KD,equilibrium [6]: 17 ± 6 µM

N=C(N)NCCC[C@H](N)C(=O)O
KD,equilibrium [7]: 140 ± 40 µM

Cc1cc2nc3c(=O)[nH]c(=O)nc-3n(C[C@H](O)[C@H](O)[C@H](O)COP(=O)(O)O)c2cc1C
KD,equilibrium [8]: 0.71 ± 0.02 µM | KD,kinetic [9]: 1.1 ± 0.4 µM

Nc1ncnc2c1ncn2[C@@H]1O[C@H](COP(=O)(O)OP(=O)(O)OP(=O)(O)O)[C@@H](O)[C@H]1O
KD,equilibrium [10]: 8.8 ± 3.0 µM

Cc1ncc(C[n+]2csc(CCOP(=O)(O)OP(=O)(O)O)c2C)c(N)n1
KD,kinetic [11]: 0.00089 ± 0.0008 µM

Cn1c(=O)c2[nH]cnc2n(C)c1=O
KD,kinetic [12]: 0.43 ± 0.04 µM | KD,equilibrium [13]: 0.34 ± 0.02 µM
